Assays:
Format in all cases: cell-based
Staphylococcus aureus = assay: MIC in liquid culture, S. aureus; details: for MIC, S. aureus: Table 1; for antimicrobial effect: Methicillin-resistant strain NRS70, paper disk and MIC studies
Procedure: (§1) To determine the antimicrobial potential of the two generations (G1—based on SbPh4-core, and G2—based on SbMe3-core) of newly synthesized Sb(V) cyanoximates, several representative compounds were first selected and their antimicrobial properties tested by using disk diffusion assays, The minimal inhibitory concentrations (MIC) of selected compounds were also determined in liquid cultures. Three bacterial and two fungal pathogens were used as target microorganisms. Bacterial pathogens included Gram-negative Pseudomonas aeruginosa and Gram-positive Staphylococcus aureus, representing the ESKAPE group of human pathogens known for their high virulence and antibiotic resistance.
(§2) MIC of the 3rd generation compounds, as well as complete MIC measurements for the 2nd generation Sb(V) compounds, are determined. A dilution assay in a 96-well-plate format, the gold standard for measuring MICS recommended by the Clinical Laboratory Standards Institute (CLSI), is utilized. Prior to plate inoculation, bacterial cultures of P. aeruginosa PAO1, S. aureus NRS70, E. foecium CC17, and E. coli S17 are grown in Mueller Hinton Broth (MHB) to middle log phase as determined by the individual growth curves and diluted to obtain absorbance at 600 nm of 0.1. These normalized cultures are diluted 1:100 using MHB and inoculated into the fresh medium with serially diluted Sb(V) compounds in 96-well plates. The plates are incubated for 24 h at 37° C. For fungal pathogens, cultures of Cryptococcus neoformans strain H99 and Candida albicans strain SC5314 are grown to stationary phase in YPD medium for 18 h at 30° C. Following incubation, fungal cells are centrifuged, washed three times with PBS, and then counted with trypan blue exclusion. Each compound is screened using a microdilution assay with 0.5×10^3 fungal cells in RPMI-MOPS medium at 35° C. for 48 h. Following incubations for bacterial or fungal pathogens, the OD600 is measured using a Biotek Synergy HT microtiter plate reader ([…].). The MIC is defined as the lowest concentration that inhibits growth. An aliquot from the clear wells from the MIC assay is plated on agar to determine minimum bactericidal concentration (MBC) or minimum fungicidal concentration (MFC). Each experiment is based on at least three biological replicates and repeated for consistency. The MIC and MBC for each compound is compared to those obtained for clinically applied antibiotics/antifungals. For bacterial pathogens, the corresponding antibiotics, such as tobramycin (P. aeruginosa), trimethoprim (S. aureus), gentamicin (E. coli) and ampicillin (E. foecium), are used. For fungal pathogens, the data is compared to the antifungal drugs Amphotericin B and Caspofungin for C. neoformans and C. albicans, respectively, by using the CLSI method.
(§3) Two different types of antimicrobial studies were performed: 1) paper disk studies during growth on solid media; and 2) MIC determination during growth in liquid media. […] Antifungal disk assays concluded that Sb(Ph)4 (ECO) was effective against Cryptococcus neoformans and Candida albicans. […] For MIC assays, Sb(Ph)4 (MCO), the Sb(V) cyanoximate, was tested, along with the free cyanoximes H(MCO), H(ECO), and Na[H(ACO)2].
(§4) MIC assays: The MIC assay protocol utilized for determination of the effects of various organoantimony(V) cyanoximate compounds in various bacteria is shown in FIG. 16. Each solubilized in DMSO at 5 mg/ml, starting concentration is 100 μg/ml. Error bars represent standard error of the mean (if none, the values were identical in each experiment). Untested compounds have no bar. Bars reaching 100 μg/ml were not considered to have antifungal activity.

Pseudomonas aeruginosa = assay: MIC in liquid culture, P. aeruginosa; details: for MIC, P. aeruginosa: Table 1; for antimicrobial effect: strain PAO1, paper disk and MIC studies
Procedure: as §1, §2, §3, §4

[1] = system: bacterial and fungal pathogens; assay: Antimicrobial activity overall (disk diffusion and MIC tests, strain not specified); details: for antimicrobial effect in MIC assays: organism not given
Procedure: as §1, §3

Escherichia coli = assay: MIC in liquid culture, E. coli; details: for MIC, E. coli: Table 1; for antimicrobial effect: strain S17, paper disk and MIC studies
Procedure: as §1, §2, §3, §4

Candida albicans [2] = assay: MIC assay, C. albicans; details: for MIC, C. albicans: Table 1
Procedure: (§5) To determine the antifungal properties of the two groups of Sb(V) cyanoximaes, Cryptococcus neoformans and Candida albicans, both of which are deadly human pathogens, were tested.
as §2
(§6) Second, the compounds were dissolved in DMSO to […], and their minimal inhibitory concentration (MIC) was determined against C. neoformans and C. albicans. Starting concentration used was 100 μg/ml, and then diluted 1:2.
as §4

Cryptococcus neoformans [3] = assay: MIC assay, C. neoformans; details: for MIC, C. neoformans: Table 1
Procedure: as §5, §2, §6, §4

Candida albicans [4] = assay: Antifungal disk diffusion assay, C. albicans; details: solid compound on paper disk
Procedure: as §5
(§7) First, solid state powder compounds were deposited on paper disks and tested against two fungi: Cryptococcus neoformans and Candia albicans. Each experiment was conducted in triplicate with each compound at each concentration of deposited solid compound. The control was a blank paper (100% cotton disk).
(§8) Disk diffusion assays: No inhibition of Cryptococcus neoformans or Candida albicans for the following organoantimony(V) cyanoximate compounds at any concentration (S, ×2, ×4): H(ACO), H(ECO), H(MCO).

[5] = system: Staphylococcus aureus MRSA; assay: Broth dilution assay, S. aureus MRSA; details: multi-drug resistant strain, FIG. 20
Source text: As shown in FIGS. 20-21, compounds containing Sb display higher bactericidal activity against Gram positive Staphylococcus aureus (FIG. 20) than Gram negative E. coli (FIG. 21). […] In addition, 25-40% reduction of growth was also observed for Sb(Ph4)Br, Sb(Ph4)ECO, Sb(Ph4)ACO, and Sb(Ph4)TCO against Gram negative E. coli (FIG. 21).

Cryptococcus neoformans [6] = assay: Antifungal disk diffusion assay, C. neoformans; details: solid compound on paper disk
Procedure: as §5, §7, §8

[7] = in DMSO, starting concentration 100 μg/ml, active if MIC below 100 μg/ml

Row | SMILES | MIC, S. aureus (Staphylococcus aureus) | MIC, P. aeruginosa (Pseudomonas aeruginosa) | MIC, E. coli (Escherichia coli) | MIC, C. albicans (Candida albicans [2]) | MIC, C. neoformans (Cryptococcus neoformans [3]) | antifungal activity / zone of inhibition in disk assay (Candida albicans [4]) | antifungal activity / zone of inhibition in disk assay (Cryptococcus neoformans [6]) | other results
1 | [CH3][Sb]([CH3])([CH3])([O]N=C(C#N)C(=O)N1CCOCC1)[O]N=C(C#N)C(=O)N1CCOCC1 [SbMe3(MCO)2] | >200 mg/L | 50 mg/L | >200 mg/L | – | – | – | – | antimicrobial activity [1]: pronounced antimicrobial activity
2 | CCOC(=O)C(C#N)=N[O][Sb]([c]1ccccc1)([c]1ccccc1)([c]1ccccc1)[c]1ccccc1 [SbPh4ECO] | 150 mg/L | 150 mg/L | >200 mg/L | 31.2 mg/L | 10.9 mg/L | effective | effective | antimicrobial effect (Staphylococcus aureus): significant antimicrobial effect; bactericidal activity [5]: significant bactericidal activity; antimicrobial effect (Pseudomonas aeruginosa): significant antimicrobial effect; antimicrobial effect (Escherichia coli): significant antimicrobial effect
3 | CN(C)C(=S)C(C#N)=N[O][Sb]([c]1ccccc1)([c]1ccccc1)([c]1ccccc1)[c]1ccccc1 [SbPh4TDCO] | 100 mg/L | >200 mg/L | >200 mg/L | 100 mg/L | 33.3 mg/L | only effective at inhibition of Cryptococcus neoformans | effective | antimicrobial effect (Staphylococcus aureus): significant effects; antimicrobial effect (Pseudomonas aeruginosa): essentially no antimicrobial activity; antimicrobial effect (Escherichia coli): essentially no antimicrobial activity
4 | [Br][Sb]([c]1ccccc1)([c]1ccccc1)([c]1ccccc1)[c]1ccccc1 [SbPh4Br, tetraphenylantimony(V) bromide, reference compound] | – | – | – | – | – | – | – | bactericidal activity [5]: significant bactericidal activity
5 | CCOC(=O)C(C#N)=N[O][Sb]([CH3])([CH3])([CH3])[O]N=C(C#N)C(=O)OCC [SbMe3(ECO)2] | >200 mg/L | >200 mg/L | >200 mg/L | – | – | – | – | –
6 | N#CC(=NO)C(=O)N1CCOCC1 [H(MCO), reference compound] | – | – | – | – | – | No inhibition | No inhibition | antimicrobial activity [1]: most antimicrobially active; antimicrobial effect in MIC assays [1]: no antimicrobial effect
7 | N#CC(=N[O][Sb]([c]1ccccc1)([c]1ccccc1)([c]1ccccc1)[c]1ccccc1)C(N)=O [SbPh4ACO] | 100 mg/L | 100 mg/L | 100 mg/L | 15.6 mg/L | 18.8 mg/L | only effective at inhibition of Cryptococcus neoformans | effective | antimicrobial effect (Staphylococcus aureus): significant antimicrobial effect; MIC (minimum inhibitory concentrations) [5]: 100 mg/L; bactericidal activity [5]: significant bactericidal activity; antimicrobial effect (Pseudomonas aeruginosa): significant antimicrobial effect; antimicrobial effect (Escherichia coli): significant antimicrobial effect
8 | N#C/C(=N\O)C(N)=O [H(ACO), reference compound] | – | – | – | – | – | No inhibition | No inhibition | antimicrobial activity [1]: most antimicrobially active
9 | CN(C)C(=S)C(C#N)=N[O][Sb]([CH3])([CH3])([CH3])[O]N=C(C#N)C(=S)N(C)C [SbMe3(TDCO)2] | – | >200 mg/L | >200 mg/L | – | – | – | – | –
10 | [CH3][Sb]([CH3])([CH3])([O]N=C(C#N)C(N)=S)[O]N=C(C#N)C(N)=S [SbMe3(TCO)2] | – | >200 mg/L | >200 mg/L | – | – | – | – | –
11 | [CH3][Sb]([CH3])([CH3])([Br])[Br] [SbMe3Br2, triemethylantimony(V) dibromide, reference compound] | 100 mg/L | 50 mg/L | 150 mg/L | >100 mg/L | >100 mg/L | – | – | –
12 | N#CC(=N[O][Sb]([c]1ccccc1)([c]1ccccc1)([c]1ccccc1)[c]1ccccc1)C(=O)N1CCOCC1 [SbPh4MCO] | 100 mg/L | 200 mg/L | >200 mg/L | 32.1 mg/L | 19.8 mg/L | – | – | antifungal activity in MIC assay (Candida albicans [2]; [7]): exhibited antifungal activity; concentration with fungicidal activity (killed C. neoformans) (Cryptococcus neoformans [3]; Example 6): 100 µg/mL; MIC with C. neoformans (Cryptococcus neoformans [3]; Example 6, three independent experiments): 22.5 mg/L; antifungal activity in MIC assay (Cryptococcus neoformans [3]; [7]): exhibited antifungal activity
13 | N#CC(=NO)C(N)=O.N#CC(=N[O-])C(N)=O.[Na+] [Na[H(ACO)2]] | – | – | – | – | – | – | – | antimicrobial effect in MIC assays [1]: no antimicrobial effect
14 | [CH3][Sb]([CH3])([CH3])([O]N=C(C#N)c1ccccc1Cl)[O]N=C(C#N)c1ccccc1Cl [SbMe3(2-ClPhCO)2] | >200 mg/L | >200 mg/L | >200 mg/L | >100 mg/L | >100 mg/L | – | – | –
15 | [CH3][Sb]([CH3])([CH3])([O]N=C(C#N)c1c(Cl)cccc1Cl)[O]N=C(C#N)c1c(Cl)cccc1Cl [SbMe3(2,6-ClPhCO)2] | – | >200 mg/L | 50 mg/L | >100 mg/L | >100 mg/L | – | – | antimicrobial activity [1]: pronounced antimicrobial activity
16 | CCOC(=O)/C(C#N)=N/O [H(ECO), reference compound] | – | – | – | – | – | No inhibition | No inhibition | antimicrobial effect in MIC assays [1]: no antimicrobial effect
17 | [CH3][Sb]([CH3])([CH3])([O]N=C(C#N)c1ccc(Cl)cc1Cl)[O]N=C(C#N)c1ccc(Cl)cc1Cl [SbMe3(2,4-ClPhCO)2] | – | >200 mg/L | >200 mg/L | >100 mg/L | >100 mg/L | – | – | –

Reference: patent US20240172756A1, “ORGANOANTIMONY(V) C[…] AND METHODS OF PRODUCTION AND USE THEREOF” (priority 2021, published 2024)
